{"source": "patent US20260365696A1", "about": "“INHIBITORS OF PTP1B / NCK1 INTERACTION AND METHODS OF MAKING AND USING SAME” (Radella Pharmaceuticals LLC, priority 2023, published 2026)", "key": {"[1]": {"test": "Microsomal metabolic stability", "type": "in vitro ADME", "conditions": "human liver microsomes 0.5 mg/mL, 1 μM, 37 °C", "method": "Microsomal Metabolic Stability (human liver microsomes): Human liver microsomes (final protein concentration 0.5 mg/mL), 0.1 M phosphate buffer pH 7.4 and test compound MD20 (final substrate concentration 1 μM; final DMSO concentration 0.25%) were pre-incubated at 37 °C prior to the addition of NADPH (final concentration 1 mM) to initiate the reaction. A minus cofactor control incubation was included for each compound tested where 0.1 M phosphate buffer pH 7.4 was substituted for NADPH (“minus NADPH”).\nEach compound was incubated for 0, 5, 15, 30 and 45 min. The control (minus NADPH) was incubated for 45 min only. The reactions were stopped by transferring incubate in to acetonitrile at the appropriate time points, in a 1:3 ratio. The termination plates were centrifuged at 3,000 rpm for 20 min at 4 °C to precipitate the protein. Following protein precipitation, the sample supernatants were combined in cassettes of up to 4 compounds, internal standard was added and samples were analyzed using Cyprotex generic LC-MS/MS conditions. The time point at which 30-70% of parent had degraded was then investigated at 3 different levels of metabolite profiling and/or identification. The intrinsic clearance (CLint) of the test compound was calculated."}, "HMGCS": {"system": "HMGCS", "test": "HMGCS gene expression in liver of LDLR−/− mice (qPCR)", "type": "in vivo, mouse", "conditions": "30 mg/kg IP daily, vs control", "method": "(§1) FIGS. 30A-30E are graphs showing expression of various genes in tissues of HFD-fed LDLR−/− mice following 6 weeks of daily IP administration of MD20 (30 mg/kg) or a vehicle control. Mice were fasted for 5 hours at the conclusion of the experiment, liver and white adipose tissue (“WAT”) samples were collected, and gene expression was measured by qRT-PCR. Expression of glucose transporter 4 (GLUT4; FIG. 30A) and stearoyl-CoA-desaturase 1 (SCD1; FIG. 30B) was measured in adipose tissue, and expression of Glucose-6-phosphatase (G6P; FIG. 30C), Activating Transcription Factor 4 (ATF4; FIG. 30D), and 3-hydroxy-3-methylglutaryl (HMGCS; FIG. 30E) was measured in liver tissue. Data represent mean±SEM; statistical differences were determined using two tailed student's t-test.\n(§2) Gene expression analyses: Livers and adipose tissue were collected from 5 h-fasted animals and snap-frozen in liquid nitrogen. RNA was isolated from frozen liver tissue using TRIzole (Sigma, UK) and cDNA was synthesized from 1 μg RNA using bioscript cDNA synthesis kit (Bioline, UK), oligo (dT) 18 (SEQ ID NO: 170), and random hexamer primers.\n(§3) Genes of interest were amplified by quantitative PCR (qPCR) using gene-specific primers and GoTaq qPCR master mix (Promega, Madison, WI, USA)."}, "G6Pase": {"system": "G6Pase", "test": "G6Pase gene expression in liver of LDLR−/− mice (qPCR)", "type": "in vivo, mouse", "conditions": "30 mg/kg IP daily, vs control", "method": "as §1, §2, §3"}, "HFD-fed mice": {"system": "HFD-fed mice", "test": "High-fat diet-induced obesity and type 2 diabetes model", "type": "in vivo, mouse", "conditions": "30 mg/kg IP daily, 7 weeks", "from_the_text": "Animals: All animals were housed and tested following European (Directive on the Protection of Animals used for Scientific Purposes, 2010/63/EU) and UK Home Office regulations. Experiments were approved by the University Ethics Board and carried out in accordance with the Animal (Scientific Procedures) Act 1986 and following ARRIVE guidelines. C57BL/6 male mice (~3-4 months) were purchased from Charles River, UK. All mice received high fat and cholesterol diet (42% fat plus 0.2% cholesterol, #TD.88137, Envigo, US) to induce experimental type 2 diabetes and obesity phenotype. All mice had ad libitum access to food and water and were kept in a 12 h light/dark cycle.\nBriefly, after 8 weeks of high fat/high cholesterol diet feeding, mice were counterbalanced according to their body weight in to control (n=10) or MD20 30 mg/kg (n=10) groups. MD20 compound (30 mg/kg) was administered once daily via intraperitoneal (IP) injection for 7 weeks, whereas control mice received daily IP injection of vehicle (PBS). MD20 was kept at −20 °C and dissolved in sterile phosphate buffered saline (PBS) freshly every day before the injection. Three mice died during the study, and the final number of animals was: control (n=9) and MD20 30 mg/kg (n=8).\nBodyweights and body mass composition: Bodyweights were recorded during the study. Fat mass and lean mass composition were analysed using an EchoMRI scanner (EchoMedical Systems, Houston, TX, U.S.A.).\nMetabolic measurements: All animals were 5 h-fasted before metabolic testing. Tail blood glucose was measured using AlphaTRAK 2 glucose strips and glucometer (Abbot, UK). Glucose tolerance tests (GTT) and insulin tolerance tests (ITT) were performed by IP injection of 2 mg/g of glucose (GTT) or 0.6 mU/g insulin (ITT), and glucose levels were measured at 15, 30, 60 and 90 min post-injection.\nSerum and liver assays: Trunk-derived blood was collected from 5 h-fasted mice into serum separator microtubes and kept at −80 °C. Serum was used for insulin (#EZRMI-13K, Merck), leptin (#90030, Crystal Chem), free fatty acids (FFA; #mak044, Sigma-Aldrich), cholesterol (#MAK043, Sigma Aldrich), alanine, and aspartate aminotransferase (ALT and AST; ab105134 and ab105135, Abcam) analyses. Serum and liver triglycerides were determined using triglyceride reagents (#T2449, #F6428, #G7793, Sigma Aldrich).\nStatistical analyses: Data were reported as means±SEM and analysed using one- or two-way ANOVA with Bonferroni post hoc tests, as appropriate. GraphPad Prism (V8, GraphPad Software, Inc., San Diego, California, USA) was used for statistical analyses. P-values <0.05 were considered significant."}}}
{"substance": "Ac-PRPPKR-NH2 [MD20, Ac-PRPPKR-NH2]", "values": [{"measurement": "intrinsic clearance (CL int)", "setting": "[1]", "result": 4.90}, {"measurement": "HMGCS expression", "setting": "HMGCS", "result": "upregulated"}, {"measurement": "G6Pase gene expression in liver", "setting": "G6Pase", "result": "decreased"}, {"measurement": "fasted basal glucose levels", "setting": "HFD-fed mice", "result": "No significant differences"}, {"measurement": "fasted serum cholesterol", "setting": "HFD-fed mice", "result": "No significant differences"}, {"measurement": "fasted serum free fatty acids", "setting": "HFD-fed mice", "result": "No significant differences"}, {"measurement": "fasted serum insulin", "setting": "HFD-fed mice", "result": "No significant differences"}, {"measurement": "fasted serum leptin", "setting": "HFD-fed mice", "result": "No significant differences"}, {"measurement": "hepatic toxicity", "setting": "HFD-fed mice", "result": "most likely did not induce hepatic toxicity"}, {"measurement": "liver triglycerides", "setting": "HFD-fed mice", "result": "No significant differences"}, {"measurement": "serum ALT", "setting": "HFD-fed mice", "result": "No significant differences"}, {"measurement": "serum AST", "setting": "HFD-fed mice", "result": "No significant differences"}, {"measurement": "serum triglycerides", "setting": "HFD-fed mice", "result": "No significant differences"}, {"measurement": "body weight gain", "setting": "HFD-fed mice; vs control", "result": "inhibited body weight gain"}, {"measurement": "fat mass gain", "setting": "HFD-fed mice; vs control", "result": "inhibited fat mass gain"}, {"measurement": "glucose tolerance test (GTT)", "setting": "HFD-fed mice; 2 mg/g glucose", "result": "No significant differences"}, {"measurement": "insulin sensitivity during ITT", "setting": "HFD-fed mice; 0.6 mU/g insulin", "result": "improved insulin sensitivity during ITT"}]}
